DBAASP
Values after ≈ are worked out from the molar mass of the structure shown.

Experiments:
Test in all cases: ≥ marks a high value that may be exact or a test limit, other limits are often not marked, values filed in µg/mL are converted to µM
[1] = system: Staphylococcus epidermidis ATCC 12228
[2] = system: Pseudomonas aeruginosa ATCC 27853
[3] = system: Staphylococcus aureus ATCC 29213
[4] = system: Escherichia coli ATCC 25922
Staphylococcus aureus = system: Staphylococcus aureus
Escherichia coli = system: Escherichia coli

SMILES	MIC [3] [µM]	MIC [4] [µM]	also measured
CC(C)C[C@H](NC(=O)[C@H](CC(N)=O)NC(=O)[C@H](Cc1c[nH]c2ccccc12)NC(=O)[C@H](CCCN=C(N)N)NC(=O)[C@H](C)NC(=O)[C@H](CCCCN)NC(=O)[C@H](CCCCN)NC(=O)CNC(=O)[C@H](CC(C)C)NC(=O)[C@H](Cc1ccc(O)cc1)NC(=O)[C@H](Cc1ccc(O)cc1)NC(=O)CNC(=O)[C@H](Cc1c[nH]c2ccccc12)NC(=O)[C@@H](N)CO)C(=O)O [SWGYYLGKKARWNL]	–	–	MIC [1]: > 50 µM
NC(=O)[C@H](Cc1c[nH]c2ccccc12)NC(=O)[C@H](Cc1c[nH]c2ccccc12)NC(=O)[C@H](Cc1c[nH]c2ccccc12)NC(=O)[C@@H]1CCCN1C(=O)[C@H](CCCN=C(N)N)NC(=O)[C@@H]1CCCN1C(=O)[C@H](CCCN=C(N)N)NC(=O)[C@@H]1CCCN1C(=O)[C@H](CCCN=C(N)N)NC(=O)[C@@H]1CCCN1C(=O)[C@H](CCCN=C(N)N)NC(=O)[C@@H](N)CCCN=C(N)N [RRPRPRPRPWWW]	40 (≈ 69.8 µg/mL)	40 (≈ 69.8 µg/mL)	MIC [2]: 20 µM (≈ 34.9 µg/mL)
CC[C@H](C)[C@H](NC(=O)[C@H](Cc1c[nH]c2ccccc12)NC(=O)[C@H](CCCCN)NC(=O)[C@@H](NC(=O)[C@H](CC(C)C)NC(=O)[C@@H](N)CCCCN)C(C)C)C(=O)N[C@H](C(=O)N[C@@H](CCCCN)C(=O)N[C@H](C(=O)N[C@H](C(=O)N[C@@H](CC(N)=O)C(=O)N[C@@H](CCCCN)C(=O)N[C@@H](Cc1ccccc1)C(=O)N[C@H](C(=O)N[C@@H](CCCCN)C(=O)N[C@@H](CCCCN)C(=O)O)[C@@H](C)O)C(C)C)[C@@H](C)O)[C@@H](C)CC [KLVKWIIKTVNKFTKK]	–	–	MIC (Staphylococcus aureus): 22 µM (≈ 43.4 µg/mL); MIC (Escherichia coli): 3.5 µM (≈ 6.91 µg/mL)
CC(C)[C@H](NC(=O)[C@H](Cc1c[nH]c2ccccc12)NC(=O)[C@H](CCCCN)NC(=O)[C@@H](N)CCCN=C(N)N)C(=O)N[C@@H](C)C(=O)N[C@@H](Cc1c[nH]c2ccccc12)C(=O)N[C@@H](CCCN=C(N)N)C(=O)N[C@@H](CC(N)=O)C(=O)N[C@@H](CCCN=C(N)N)C(=O)O [RKWVAWRNR]	49.2 (≈ 62.5 µg/mL)	98.3 (≈ 125 µg/mL)	–
NC(=O)[C@H](Cc1ccccc1)NC(=O)[C@H](Cc1ccccc1)NC(=O)[C@H](Cc1ccccc1)NC(=O)[C@H](Cc1ccccc1)NC(=O)[C@H](Cc1ccccc1)NC(=O)[C@@H]1CCCN1C(=O)[C@H](CCCN=C(N)N)NC(=O)[C@@H]1CCCN1C(=O)[C@H](CCCN=C(N)N)NC(=O)[C@@H]1CCCN1C(=O)[C@H](CCCN=C(N)N)NC(=O)[C@@H]1CCCN1C(=O)[C@H](CCCN=C(N)N)NC(=O)[C@@H](N)CCCN=C(N)N [RRPRPRPRPFFFFF]	10 (≈ 19.2 µg/mL)	10 (≈ 19.2 µg/mL)	MIC [2]: 20 µM (≈ 38.4 µg/mL)
CC[C@H](C)[C@H](NC(=O)[C@@H](N)Cc1ccccc1)C(=O)N[C@@H](CC(C)C)C(=O)N[C@@H](CCCCN)C(=O)N[C@@H](CCCN=C(N)N)C(=O)N[C@@H](CO)C(=O)N[C@@H](Cc1ccc(O)cc1)C(=O)N1CCC[C@H]1C(=O)N[C@@H](CCC(N)=O)C(=O)N[C@@H](Cc1ccc(O)cc1)C(=O)N[C@@H](Cc1ccc(O)cc1)C(N)=O [FILKRSYPQYY]	> 474	406 (≈ 600 µg/mL)	–
CC(C)C[C@H](NC(=O)[C@H](CCCCN)NC(=O)[C@H](CC(C)C)NC(=O)[C@H](CC(C)C)NC(=O)[C@H](CCCCN)NC(=O)[C@H](CCCCN)NC(=O)[C@H](CC(N)=O)NC(=O)[C@H](CC(C)C)NC(=O)[C@H](CCCCN)NC(=O)[C@H](CC(C)C)NC(=O)[C@H](CC(C)C)NC(=O)[C@H](CCCCN)NC(=O)[C@H](CCCCN)NC(=O)[C@@H](N)CC(C)C)C(=O)N[C@@H](C)C(=O)NCC(=O)O [LKKLLKLNKKLLKLAG]	> 40	2.5 (≈ 4.55 µg/mL)	–
CC(C)C[C@H](NC(=O)[C@H](CCCCN)NC(=O)[C@H](CC(C)C)NC(=O)[C@H](CC(C)C)NC(=O)[C@H](CCCCN)NC(=O)[C@H](CCCCN)NC(=O)[C@H](CCCCN)NC(=O)[C@H](CC(C)C)NC(=O)[C@H](CCCCN)NC(=O)[C@H](CC(C)C)NC(=O)[C@H](CC(C)C)NC(=O)[C@H](CCCCN)NC(=O)[C@H](CCCCN)NC(=O)[C@@H](N)CC(C)C)C(=O)N[C@@H](C)C(=O)NCC(=O)O [LKKLLKLKKKLLKLAG]	> 40	5 (≈ 9.18 µg/mL)	–
NCC(=O)N[C@@H](CCCN=C(N)N)C(=O)N[C@@H](CCCN=C(N)N)C(=O)N1CCC[C@H]1C(=O)N[C@@H](CCCN=C(N)N)C(=O)N1CCC[C@H]1C(=O)N[C@@H](CCCN=C(N)N)C(=O)N1CCC[C@H]1C(=O)N[C@@H](CCCN=C(N)N)C(=O)N1CCC[C@H]1C(=O)N[C@@H](Cc1ccccc1)C(=O)N[C@@H](Cc1ccccc1)C(=O)N[C@@H](Cc1ccccc1)C(=O)N[C@@H](Cc1ccccc1)C(=O)N[C@@H](Cc1ccccc1)C(=O)O [GRRPRPRPRPFFFFF]	2.5 (≈ 4.95 µg/mL)	20 (≈ 39.6 µg/mL)	MIC [2]: 20 µM (≈ 39.6 µg/mL)
CC(C)C[C@H](NC(=O)[C@H](Cc1c[nH]c2ccccc12)NC(=O)[C@H](CCCCN)NC(=O)[C@H](CCCCN)NC(=O)[C@H](C)NC(=O)[C@H](CO)NC(=O)[C@H](Cc1cnc[nH]1)NC(=O)[C@H](CC(C)C)NC(=O)[C@H](Cc1ccccc1)NC(=O)[C@H](CCCCN)NC(=O)[C@@H](N)CCCCN)C(=O)N[C@@H](CCCCN)C(=O)N[C@@H](C)C(=O)N[C@@H](Cc1ccccc1)C(=O)N[C@H](C(=O)N[C@@H](CCCCN)C(=O)N[C@@H](CC(C)C)C(=O)N[C@@H](Cc1ccccc1)C(=O)N[C@@H](CCCCN)C(=O)N[C@@H](CC(N)=O)C(=O)N[C@@H](Cc1c[nH]c2ccccc12)C(=O)O)C(C)C [KKFLHSAKKWLKAFVKLFKNW]	9.44 (≈ 25 µg/mL)	–	–
CC[C@H](C)[C@H](NC(=O)[C@H](CCCN=C(N)N)NC(=O)[C@H](CCC(N)=O)NC(=O)[C@H](Cc1cnc[nH]1)NC(=O)[C@@H](NC(=O)[C@H](CCCN=C(N)N)NC(=O)[C@H](CCCCN)NC(=O)[C@@H](N)Cc1ccccc1)[C@@H](C)CC)C(=O)N[C@@H](CCCCN)C(=O)N[C@@H](CC(=O)O)C(=O)N[C@@H](Cc1ccccc1)C(=O)N[C@@H](CC(C)C)C(=O)N[C@@H](CCCN=C(N)N)C(=O)O [FKRIHQRIKDFLR]	> 40	5 (≈ 8.79 µg/mL)	–
CC(=O)N[C@@H](CCCCN)C(=O)N[C@@H](CC(C)C)C(=O)N[C@@H](CC(C)C)C(=O)N[C@@H](CCCCN)C(=O)N[C@@H](CC(C)C)C(=O)N[C@@H](CC(C)C)C(=O)N[C@@H](CCCCN)C(=O)N[C@@H](CCCCN)C(=O)N[C@@H](CC(C)C)C(=O)N[C@@H](CC(C)C)C(=O)N[C@@H](CCCCN)C(=O)N[C@@H](CC(C)C)C(=O)N[C@@H](CC(C)C)C(=O)N[C@@H](CCCCN)C(N)=O [KLLKLLKKLLKLLK]	14.1 (≈ 24.5 µg/mL)	20 (≈ 34.7 µg/mL)	–
CC[C@H](C)[C@H](NC(=O)[C@H](CCCN=C(N)N)NC(=O)[C@H](CCC(N)=O)NC(=O)[C@@H](NC(=O)[C@H](CCC(N)=O)NC(=O)[C@H](CCCN=C(N)N)NC(=O)[C@H](CCCCN)NC(=O)[C@@H](N)Cc1ccccc1)C(C)C)C(=O)N[C@@H](CCCCN)C(=O)N[C@@H](CC(=O)O)C(=O)N[C@@H](Cc1ccccc1)C(=O)N[C@@H](CC(C)C)C(=O)N[C@@H](CCCN=C(N)N)C(=O)O [FKRQVQRIKDFLR]	> 40	10 (≈ 17.3 µg/mL)	–
CC(C)C[C@H](NC(=O)[C@H](Cc1ccccc1)NC(=O)[C@@H]1CCCN1C(=O)[C@H](Cc1ccccc1)NC(=O)[C@H](Cc1ccccc1)NC(=O)[C@H](Cc1ccccc1)NC(=O)[C@@H]1CCCN1C(=O)[C@H](Cc1ccccc1)NC(=O)[C@H](CCCN=C(N)N)NC(=O)[C@H](CCCN=C(N)N)NC(=O)[C@@H](N)C(C)C)C(=O)N[C@@H](CCCN=C(N)N)C(=O)N[C@@H](CCCN=C(N)N)C(N)=O [VRRFPFFFPFLRR]	–	–	MIC (Staphylococcus aureus): 3.36 µM (≈ 6 µg/mL); MIC (Escherichia coli): 3.36 µM (≈ 6 µg/mL)
CC[C@H](C)[C@H](NC(=O)CN)C(=O)N[C@@H](CCCCN)C(=O)N[C@@H](CCCCN)C(=O)N[C@@H](Cc1c[nH]c2ccccc12)C(=O)N[C@@H](CC(C)C)C(=O)N[C@@H](Cc1cnc[nH]1)C(=O)N[C@@H](CO)C(=O)N[C@@H](C)C(=O)N[C@@H](CCCCN)C(=O)N[C@@H](CCCCN)C(=O)N1CCC[C@H]1C(=O)NCC(=O)N[C@@H](CCCCN)C(=O)N[C@@H](CCCCN)C(=O)N[C@@H](Cc1ccccc1)C(=O)N[C@H](C(=O)N[C@@H](CCCCN)C(=O)N[C@@H](CCCCN)C(=O)N[C@H](C(=O)N[C@@H](CCSC)C(=O)N[C@@H](CC(N)=O)C(=O)N[C@@H](CO)C(N)=O)[C@@H](C)CC)C(C)C [GIKKWLHSAKKPGKKFVKKIMNS]	–	5 (≈ 13.3 µg/mL)	MIC [1]: 5 µM (≈ 13.3 µg/mL)
CC[C@H](C)[C@H](NC(=O)[C@H](Cc1c[nH]c2ccccc12)NC(=O)[C@H](CCCCN)NC(=O)[C@@H](NC(=O)[C@H](CC(C)C)NC(=O)[C@H](CCCCN)NC(=O)CNC(=O)[C@@H](NC(=O)[C@@H](NC(=O)[C@H](CO)NC(=O)[C@@H](NC(=O)[C@@H](NC(=O)[C@H](CCCCN)NC(=O)[C@H](CCC(N)=O)NC(=O)[C@H](C)N)[C@@H](C)CC)[C@@H](C)CC)[C@@H](C)O)[C@@H](C)CC)C(C)C)C(=O)N[C@H](C(=O)N[C@@H](CCCCN)C(=O)N[C@H](C(=O)N[C@H](C(=O)N[C@@H](CC(N)=O)C(=O)N[C@@H](CCCCN)C(=O)N[C@@H](Cc1ccccc1)C(=O)N[C@H](C(=O)N[C@@H](CCCCN)C(=O)N[C@@H](CCCCN)C(=O)O)[C@@H](C)O)C(C)C)[C@@H](C)O)[C@@H](C)CC [AQKIISTIGKLVKWIIKTVNKFTKK]	–	–	MIC (Staphylococcus aureus): 10.3 µM (≈ 29.7 µg/mL); MIC (Escherichia coli): 2.5 µM (≈ 7.22 µg/mL)
CC[C@H](C)[C@H](NC(=O)[C@@H](NC(=O)[C@H](CCCCN)NC(=O)[C@@H](NC(=O)[C@H](C)NC(=O)[C@@H](NC(=O)[C@H](Cc1cnc[nH]1)NC(=O)CNC(=O)[C@H](C)NC(=O)[C@H](CC(C)C)NC(=O)[C@H](CC(=O)O)NC(=O)[C@H](CCCCN)NC(=O)[C@H](C)NC(=O)[C@H](C)NC(=O)CNC(=O)[C@H](CCCCN)NC(=O)[C@H](CC(C)C)NC(=O)[C@@H](NC(=O)[C@H](CC(=O)O)NC(=O)[C@H](CC(C)C)NC(=O)[C@@H](NC(=O)CN)C(C)C)[C@@H](C)CC)C(C)C)[C@@H](C)O)C(C)C)C(=O)O [GVLDILKGAAKDLAGHVATKVI]	14.6 (≈ 32 µg/mL)	3.6 (≈ 7.88 µg/mL)	–
